Test results published in patent US20150141381A1, “TETRACYCLINE COMPOUNDS HAVING TARGET THERAPEUTIC ACTIVITIES” (Paratek Pharmaceuticals, Inc., priority 2001, published 2015).

Experiment: in vitro
Format: cell-based
Conditions: African green monkey (COS-1) and Chinese hamster (CHO-K1)
Method: COS-1 and CHO-K1 cell suspensions were prepared, seeded into 96-well tissue culture treated black-walled microtiter plates (density determined by cell line), and incubated overnight at 37° C., in 5% CO2 and approximately 95% humidity. The following day, serial dilutions of drug were prepared under sterile conditions and transferred to cell plates. Cell/Drug plates were incubated under the above conditions for 24 hours. Following the incubation period, media/drug was aspirated and 50 μl of Resazurin (0.042 mg/ml in PBS w/Ca and Mg) was added. The plates were then incubated under the above conditions for 2 hours and then in the dark at room temperature for an additional 30 minutes. Fluorescence measurements were taken (excitation 535 nm, emission 590 nm).

SMILES | IC50 at 24 h [µg/mL]
CC1c2cccc(O)c2C(=O)C2=C(O)C3(O)C(=O)C(C(N)=O)=C(O)C(N(C)C)C3C(O)C21 (centres unmarked) [doxycycline, Doxycycline] | > 25
CN(C)c1ccc(O)c2c1CC1CC3[C@H](N(C)C)C(O)=C(C(N)=O)C(=O)C3(O)C(O)=C1C2=O (some centres unmarked) [minocycline, Minocycline] | > 25
